The text below walks through data of US4621089A, “Pyrazolopyridine derivatives and their use in treating inflammation and allergic conditions” (Beecham Group p.l.c., priority 1984, dated 1986).

In one test the test system is mice. The settings on record: J. Heterocycl. Chem. 1971, 8(6), 1035-7; cited from earlier work.
Another test concerns cantharidin mouse ear. Put plainly: Mouse Cantharidin Screen (topical anti-inflammatory activity, mouse ear). In kind it is in vivo. The conditions noted are these: ears weighed 24 h after cantharidin. As to the method: Compounds were tested for topical anti-inflammatory activity in a cantharidin mouse ear screen, modified from Swinge et al [Swingle, K. F., Reiter, M. J. and Schwartzmiller, D. H., Arch. Int. Pharmacodyn., (1981), 254, 168-176].
25 μg cantharidin (in 10 μl THF/MeOH) was applied to both ears. Compound, in the same solvent, was applied at the same time, to the left ear only. Ears were weight 24 h after cantharidin application. Percentage inhibition of the acute inflammatory swelling refers to the increase in weight of left ears (cantharidin plug compound) compared with solvent-treated negative controls, as a proportion of the increase in weight of right ears (cantharidin alone) over similar controls.

Test [1] concerns 5-Lipoxygenase enzyme from RBL-1 cells. The test can be described thus: RBL-1 5-Lipoxygenase Screen. The class given is biochemical. The settings on record: 20 μM compound, 10,000 g supernatant, 6.3 μm arachidonic acid, 29° C. As to the method:
5-Lipoxygenase enzyme was prepared as a 10,000 g supernatant from RBL-1 cells by the method of Jakschik [Jakschik, B. A., Sun. F. F., Lee, L. M. and Steinhoff, M. M., 1980, Biochem. Biophys. Res. Comm. 95, 103]. The 10,000 g supernatant was diluted with homogenization buffer to the equivalent of 1.5-2.5×10^7 cells ml^-1 and made 2 mM with respect to CaCl2. Aliquots of 0.5 ml were then dispensed into tubes, and incubated at 29° C. with 5 γl ethanol or compound in ethanol at the desired concentration for 2 min. Then [1-^14 C] arachidonic acid was added in buffer to give a final concentration of 6.3 μm and 0.2 μCi per incubation, and the reaction continued at 29° C. for 2 min. The reaction was terminated by adding 1 ml of acetone and cooling on ice, 0.5 ml of ice-cold saline and 10 μl of 2N formic acid were added, and the mixture was extracted with 2×2 ml of chloroform. The extract was stored under N2 at -20° C. until analysis by chromatography. Activity was measured as the percentage of total radioactivity found in 5-HETE and 5,12-diHETE, and inhibition calculated as the decrease in formation of the sum of these two species in compound-treated incubates relative to control incubates.

The subject of test [2] is mouse sensitised to oxazolone. The test can be described thus: Mouse Oxazolone Screen (topical anti-inflammatory activity). In kind it is in vivo. The settings on record: 500 μg/ear topical, ear weights 24 h after oxazolone challenge. The protocol: Compounds were tested for topical anti-inflammatory activity in a screen using the mouse sensitised to oxazolone, by a method modified from that of Dietrich and Hess [Dietrich, F. M., and Hess, R., Int. Arch. Allergy, (1970), 38, 246-259].
Mice were sensitised with oxazolone (2 mg in 20 μl ethanol) on a shaved area of the abdomen. Five days later, the animals recieved 10 μl THF/MeOH (1:1 v/v) on the right ear, and the test compound in the same solvent on the left ear. One hour later, the animals were challenged with 100 μg oxazolone in 10 μl acetone on each ear. Ear weights were measured 24 h later. Percentage inhibition of the inflammatory swelling refers to the increase in weight of left ears (oxazolone plus compound) compared with solvent-treated negative controls, as a proportion of the increase in weight of right ears (oxazolone alone) over similar controls.

Regarding `CC(=O)N(C(C)=O)c1cc(C)nc2c(C)n[nH]c12` [compound wherein R is NAc2], in the test on mice, the CNS antidepressant activity result is given as “CNS antidepressant activity”.

Take `CCCCNc1c(C(=O)OCC)cnc2cn[nH]c12` [Example 6, Ethyl 7-n-Butylamino-1H-pyrazolo[4,3-b]pyridine-6-carbosylate]: the “inhibition of the acute inflammatory swelling” value with cantharidin mouse ear (200 μg/ear topical) amounted to 42%. Moreover, the “inhibition of formation of 5-HETE and 5,12-diHETE” value in test [1] is reported as 78%.

Consider `CCOC(=O)c1cnc2cn[nH]c2c1Nc1ccccc1` [Example 1, Ethyl 7-anilino-1H-pyrazolo[4,3-b]pyridine-6-carboxylate], for which, in test [2], the “inhibition of the inflammatory swelling” value worked out at 24%.

On to `C=CCNc1c(C(=O)OCC)cnc2cn[nH]c12` [Example 2, Ethyl 7-Allylamino-1H-pyrazolo[4,3-b]-pyridine-6-carboxylate], for which, in the test with cantharidin mouse ear (500 μg/ear topical), the “inhibition of the acute inflammatory swelling” value came out at 20%.
